Results reported in patent publication US20250152616A1, “COMPOSITIONS FOR AND METHODS OF TREATING, PREVENTING, AND/OR MITIGATING PAIN” (Duke University, priority 2022, published 2025).
One block for each molecule: values may come before it.

Key:
ADORA1 = molecular target: T1, ADORA1 (Mus musculus, UniProt Q60612); test: Fura-2 calcium imaging of NGF-exposed, adenosine-treated DRG neurons with ADORA1 inhibitor; type: cell-based; settings: NGF-exposed DRG treated with adenosine 5 μM plus DPCPX 100 nM; capsaicin 100 nM; vehicle DMSO
T1 construct: endogenous in cells; host or cells: primary dissociated mouse L3-L4 DRG neurons
T1 sequence (Q60612 1-326): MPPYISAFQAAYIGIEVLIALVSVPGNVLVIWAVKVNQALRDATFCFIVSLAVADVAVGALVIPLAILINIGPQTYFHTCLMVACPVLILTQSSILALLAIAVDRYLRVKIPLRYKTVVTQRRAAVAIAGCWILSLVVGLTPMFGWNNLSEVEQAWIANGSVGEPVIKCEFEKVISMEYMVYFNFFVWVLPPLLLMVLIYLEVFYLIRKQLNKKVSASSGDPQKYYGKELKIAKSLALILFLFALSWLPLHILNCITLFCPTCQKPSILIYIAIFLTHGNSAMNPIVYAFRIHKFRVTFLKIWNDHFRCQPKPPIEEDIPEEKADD
Excerpt: DRG were isolated from mice using a modified version of the previously described protocol (Perner C, et al. (2021) STAR Protoc. 2:100333). Briefly, mice were euthanized and dosed in 70% ethanol to prevent fur contamination. Mice were positioned prone, and an incision was made along the spine from the neck to the base of the tail. Under a dissecting microscope, the surrounding soft tissue of the spinal column was removed from the dorsal side by Friedman-Pearson Rongeurs (Fine Science Tools, Foster City, CA, Cat #16021-14) from the mid thoracic region to the lumbosacral joint. The vertebral bone surrounding the DRG was gently crushed and removed with rongeurs exposing the spinal cord. The DRG were carefully extracted near the foramen between the vertebral levels. L3 and L4 DRG were collected for analyses. […] For cell culture experiments, collected DRG were digested in digestion solution comprised of collagenase type II (Worthington, Lakewood, NJ, Cat #LS004176) and dispase (1.5 mg/mL each) dissolved in DMEM/F12. DRG were agitated in a digestion solution on an orbital shaker at 60 rpm and 37° C. for 20 minutes and repeated thrice with fresh digestion solution. […]

ADORA2B = molecular target: T2, ADORA2B (Mus musculus, UniProt Q60614); test: RT-qPCR of osteogenic genes in BM-MSCs with ADORA2B inhibitor; type: cell-based; settings: BM-MSCs with adenosine 30 μg/mL plus PSB 603, 14 days, vs vehicle DMSO
T2 construct: endogenous in cells; host or cells: primary mouse bone marrow mesenchymal stromal cells (BM-MSCs), passage 1-2
T2 sequence (Q60614 1-332): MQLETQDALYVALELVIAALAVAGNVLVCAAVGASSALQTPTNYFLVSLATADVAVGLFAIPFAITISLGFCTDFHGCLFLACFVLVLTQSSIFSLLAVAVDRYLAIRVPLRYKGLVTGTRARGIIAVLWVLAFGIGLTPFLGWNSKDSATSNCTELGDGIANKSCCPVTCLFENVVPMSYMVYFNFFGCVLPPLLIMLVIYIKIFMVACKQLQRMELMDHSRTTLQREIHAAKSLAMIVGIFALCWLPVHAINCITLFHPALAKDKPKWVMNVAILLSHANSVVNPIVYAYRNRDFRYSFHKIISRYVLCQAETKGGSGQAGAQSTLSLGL
Method: MSCs were isolated as previously described with some modifications (Shih Y B, et al. (2019) Sci Adv. 5:eaax1387). Briefly, the femurs, tibiae, vertebrae of mice were harvested, crushed with pestle and mortar in harvest buffer (1% v/v FBS in PBS) to release bone marrow (BM) tissue, filtered through a 40-μm cell strainer, and centrifuged at 200 rcf. Cells were seeded in a 24-well plate at a cell density of 1 million cells/cm^2 in growth media (GM) containing α-MEM, FBS (10% v/v, ThermoFisher, Cat #16000044), penicillin/streptomycin (10000 U/mL; 1% v/v) and cultured in humidified incubator (37° C., 5% CO2). The medium was replaced after 3 days and further cultured for 6 days before passage. […]
Cells, DRG, or bone/marrow tissues were analyzed for gene expression by quantitative real-time polymerase chain reaction (RT-qPCR). […] Quantitative PCR was performed with iTaq Universal SYBR green reagent (Bio-Rad, Cat #1725124) with denaturation at 95° C. for 30 sec for one cycle, and amplification (denaturation+annealing/extension) at 95° C. for 5 sec and 60° C. for 30 sec for 40 cycles on a polymerase chain reaction (PCR) cycler (Bio-Rad, CFX96 Touch). […]
The expression level of each target gene was normalized to the housekeeping gene and to their respective controls and presented as fold change expressed as 2^−ΔΔCt values. […]

dissociated DRG neurons [1] = test: Fura-2 calcium imaging of dissociated DRG neurons stimulated with capsaicin; type: cell-based, mouse; settings: NGF 200 ng/mL 24 hr vs no NGF; capsaicin 100 nM
Excerpt: DRG were isolated from mice using a modified version of the previously described protocol (Perner C, et al. (2021) STAR Protoc. 2:100333). Briefly, mice were euthanized and dosed in 70% ethanol to prevent fur contamination. Mice were positioned prone, and an incision was made along the spine from the neck to the base of the tail. Under a dissecting microscope, the surrounding soft tissue of the spinal column was removed from the dorsal side by Friedman-Pearson Rongeurs (Fine Science Tools, Foster City, CA, Cat #16021-14) from the mid thoracic region to the lumbosacral joint. The vertebral bone surrounding the DRG was gently crushed and removed with rongeurs exposing the spinal cord. The DRG were carefully extracted near the foramen between the vertebral levels. L3 and L4 DRG were collected for analyses. Dissected DRG were placed directly into ice-cold DMEM-F12 medium (ThermoFisher, Cat #11320033) for in vitro culture, Trizol (ThermoFisher, Cat #15596018) for PCR analyses, or 4% PFA for histology. For cell culture experiments, collected DRG were digested in digestion solution comprised of collagenase type II (Worthington, Lakewood, NJ, Cat #LS004176) and dispase (1.5 mg/mL each) dissolved in DMEM/F12. DRG were agitated in a digestion solution on an orbital shaker at 60 rpm and 37° C. for 20 minutes and repeated thrice with fresh digestion solution. Next, the digestion solution was replaced with trypsin-EDTA (0.025%) in DMEM/F12 and incubated for an additional 15 min to disrupt the remaining cell-to-cell adhesions. The solution was then replaced with DMEM/F12 and FBS (1:3) to neutralize trypsin. DRG were triturated to create a cell suspension and gently layered onto 15% bovine serum albumin (BSA) solution without mixing and centrifuged for 6 min at 280 g with minimal acceleration and no deceleration to separate non-neuronal cells and debris (Owen D E, et al. (2012) Methods Mol Biol. 846:179-187). […]
Intracellular cytosolic Ca^2+ was evaluated by Fura-2 loaded DRG neurons (Khomula E V, et al. (2019) J Neurosci. 39:7061-7073). […]

dissociated DRG neurons [2] = test: FluoVolt membrane potential imaging of dissociated DRG neurons; type: cell-based, mouse; settings: NGF exposure 1 day; capsaicin stimulation
Excerpt: DRG were isolated from mice using a modified version of the previously described protocol (Perner C, et al. (2021) STAR Protoc. 2:100333). Briefly, mice were euthanized and dosed in 70% ethanol to prevent fur contamination. Mice were positioned prone, and an incision was made along the spine from the neck to the base of the tail. Under a dissecting microscope, the surrounding soft tissue of the spinal column was removed from the dorsal side by Friedman-Pearson Rongeurs (Fine Science Tools, Foster City, CA, Cat #16021-14) from the mid thoracic region to the lumbosacral joint. The vertebral bone surrounding the DRG was gently crushed and removed with rongeurs exposing the spinal cord. The DRG were carefully extracted near the foramen between the vertebral levels. L3 and L4 DRG were collected for analyses. Dissected DRG were placed directly into ice-cold DMEM-F12 medium (ThermoFisher, Cat #11320033) for in vitro culture, Trizol (ThermoFisher, Cat #15596018) for PCR analyses, or 4% PFA for histology. For cell culture experiments, collected DRG were digested in digestion solution comprised of collagenase type II (Worthington, Lakewood, NJ, Cat #LS004176) and dispase (1.5 mg/mL each) dissolved in DMEM/F12. […]
DRG neuron potential changes were evaluated with FluoVolt, a voltage sensitive indicator dye (ThermoFisher, Cat #F10488). […]

TRPV1 = test: Immunofluorescence staining of TRPV1 in cultured DRG neurons; type: cell-based, mouse; settings: NGF 200 ng/mL, 1 day incubation, DRG neurons from unfractured mice
Method: To culture DRG neurons, culture media composed of Neurobasal-A medium (ThermoFisher, Cat #10888022), 2% B27 supplement (ThermoFisher, Cat #17504044), 1% glutamax (ThermoFisher, Cat #35050061), and penicillin/streptomycin (10000 U/mL, 1% v/v, ThermoFisher, Cat #15140122) was used. Cells were treated with or without NGF (200 ng/mL) for 24 hr prior to immunofluorescence imaging. Cells were exposed to NGF (200 ng/mL) for 24 hr (long-term) for calcium and FluoVolt imaging. Cells were cultured on custom-made glass surface with silicone wells. Briefly, cover slides (#1 thickness) were cleaned by agitating in 0.5 M NaOH for 30 minutes followed by subsequent rinsing in dH2O followed by 100% ethanol and air-dried. Wells were produced in cured polydimethylsiloxane (PDMS, Sylgard 184, Ellsworth Adhesives, Germantown, WI) with a 8-mm biopsy punch and bonding to the cover slides. […]
Sections were heated for antigen retrieval in citrate buffer (MilliporeSigma, Cat #C9999) for 20 min, permeabilized in 0.1% Triton X-100 in PBS for 10 min, followed by blocking for 1 hr in blocking solution comprised of 3% BSA, 0.26 M glycine, 5% normal donkey serum in Tris buffered saline (TBS) at room temperature. […] Fluorescence intensity was quantified by ImageJ software and presented in arbitrary units.

average and peak fluorescence intensity vs vehicle control lacking DPCPX (ADORA1): increase
Molecule: CCCn1c(=O)c2[nH]c(C3CCCC3)nc2n(CCC)c1=O [DPCPX, 8-Cyclopentyl-1,3-dipropylxanthine]

adenosine mediated upregulation of osteogenic markers (Runx2, Sp7, Ibsp) (ADORA2B): attenuated
Molecule: CCCn1c(=O)[nH]c2nc(-c3ccc(S(=O)(=O)N4CCN(c5ccc(Cl)cc5)CC4)cc3)[nH]c2c1=O [PSB 603]

TRPV1 receptor expression in TUBB3-positive neurons (TRPV1): significantly increased
Molecule: NGF: nerve growth factor, used as model molecule for in vitro sensitization of DRG neurons
functional responses of DRG neurons to capsaicin (Fura-2 intensity) (dissociated DRG neurons [1]): increased
membrane potential of DRG neurons (FluoVolt) (dissociated DRG neurons [2]): increased
